Series [1] concerns ZIKV strain MR766 (Genbank LC002520). Kind of series: Antiviral activity against ZIKV replication in cells. The class given is cell-based, Zika virus. As to the method:
(§1) The human hepatoma cell line Huh-7, are cultured in DMEM without phenol-red (Cellgro Mediatech, Cat #10-013-CV containing 4.5 g/l glucose, L-glutamine & sodium pyruvate). The medium is further supplemented with 10% (v/v) FBS (ATLAS Cat # F-0500-A, lot#850114A) and 1% (vlv) penicillin/streptomycin (Cellgro Mediatech #30-022-CI). Cells are maintained at 37° C. in a humidified 5% CO2 atmosphere. Zika virus representative strain titers are measured on BHK-21 cells, using a standard plaque assay procedure. For the determination of EC50 of nucleoside in the antiviral assay, Huh-7 cells are plated in white 96-well plates in MEM media supplemented with 10% FBS and 1% penicillin/streptomycin. After incubation for 24 h, the cells are infected at a multiplicity of infection (MOI) of 0.5 for 2 h at 37° C. Ten three-fold dilutions of compounds are prepared in the same media supplemented with 1% DMSO. After the 2 h adsorption phase, the virus is aspirated off and diluted compound is added to four wells each. Huh-7 cells are plated as described above and exposed to the same concentration range of compounds. Untreated cells are carried along as a control. After a 3-day incubation at 37° C., the cell viability is determined using Cell-titer Glo™ reagent (Promega, Madison, Wis.) that is added to each well and incubated for 5 min. Plates are analyzed using a Thermo Luminoskan plate reader (Waltham, Mass.).

Series [2] can be described thus: Cell viability (CC50) alongside ZIKV antiviral assay, Cell-titer Glo. The class given is cell-based. To be noted: human, Huh-7 cells. As to the method:
as §1

For series [3], the system named is HCV replicon of genotype 1a (H77). Kind of series: HCV replicon genotype 1a antiviral activity. The conditions noted are these: Hepatitis C virus; replicon genotype 1a (H77); read-out: HCV GT1a EC50. The class given is cell-based. In general terms: Replicon systems follow genome replication, usually without infectious particles.
Series [4] is described as follows: Cytotoxicity (CC50) alongside HCV GT1a replicon assay. The class given is cell-based. The conditions noted are these: HCV GT1a (H77) replicon cells; replicon genotype 1a (H77).
The subject of series [5] is HCV replicon of genotype 1b (Con1). In words: HCV replicon genotype 1b antiviral activity. The class given is cell-based. The conditions noted are these: Hepatitis C virus; replicon genotype 1b (Con1); read-out: HCV GT1b EC50.
In series [6] the target is T1, human RNA polymerase I (Homo sapiens, UniProt O95602+Q9H9Y6).
T1 construct: endogenous in cells; host or cells: HeLa
Kind of series: RNA polymerase I specific reporter gene assay in HeLa cells. The class given is cell-based. To be noted: 10 or 100 μM (highest soluble concentrations). In general terms: A reporter such as luciferase makes a cellular process visible.

Series [7] concerns the target T2, human RNA polymerase II (Homo sapiens, UniProt P24928+P30876).
T2 construct: endogenous in cells; host or cells: HeLa
In words: RNA polymerase II specific reporter gene assay in HeLa cells. The class given is cell-based. The conditions noted are these: 10 or 100 μM (highest soluble concentrations).

Series [8] concerns the target T3, human RNA polymerase III (Homo sapiens, UniProt O14802+Q9NW08).
T3 construct: endogenous in cells; host or cells: HeLa
In words: RNA polymerase III specific reporter gene assay in HeLa cells. The class given is cell-based. The conditions noted are these: 10 or 100 μM (highest soluble concentrations).

Series [9] can be described thus: Solubility in cell culture medium / aqueous media. To be noted: plasma or biological fluid.
Series [10] can be described thus: Cytotoxicity (CC50) alongside HCV GT1b replicon assay. The conditions noted are these: HCV GT1b (Con1) replicon cells.
For series [11], the target named is T4, mitochondrial DNA polymerase pol γ (Homo sapiens, UniProt P54098).
T4 sequence (P54098 1-1239): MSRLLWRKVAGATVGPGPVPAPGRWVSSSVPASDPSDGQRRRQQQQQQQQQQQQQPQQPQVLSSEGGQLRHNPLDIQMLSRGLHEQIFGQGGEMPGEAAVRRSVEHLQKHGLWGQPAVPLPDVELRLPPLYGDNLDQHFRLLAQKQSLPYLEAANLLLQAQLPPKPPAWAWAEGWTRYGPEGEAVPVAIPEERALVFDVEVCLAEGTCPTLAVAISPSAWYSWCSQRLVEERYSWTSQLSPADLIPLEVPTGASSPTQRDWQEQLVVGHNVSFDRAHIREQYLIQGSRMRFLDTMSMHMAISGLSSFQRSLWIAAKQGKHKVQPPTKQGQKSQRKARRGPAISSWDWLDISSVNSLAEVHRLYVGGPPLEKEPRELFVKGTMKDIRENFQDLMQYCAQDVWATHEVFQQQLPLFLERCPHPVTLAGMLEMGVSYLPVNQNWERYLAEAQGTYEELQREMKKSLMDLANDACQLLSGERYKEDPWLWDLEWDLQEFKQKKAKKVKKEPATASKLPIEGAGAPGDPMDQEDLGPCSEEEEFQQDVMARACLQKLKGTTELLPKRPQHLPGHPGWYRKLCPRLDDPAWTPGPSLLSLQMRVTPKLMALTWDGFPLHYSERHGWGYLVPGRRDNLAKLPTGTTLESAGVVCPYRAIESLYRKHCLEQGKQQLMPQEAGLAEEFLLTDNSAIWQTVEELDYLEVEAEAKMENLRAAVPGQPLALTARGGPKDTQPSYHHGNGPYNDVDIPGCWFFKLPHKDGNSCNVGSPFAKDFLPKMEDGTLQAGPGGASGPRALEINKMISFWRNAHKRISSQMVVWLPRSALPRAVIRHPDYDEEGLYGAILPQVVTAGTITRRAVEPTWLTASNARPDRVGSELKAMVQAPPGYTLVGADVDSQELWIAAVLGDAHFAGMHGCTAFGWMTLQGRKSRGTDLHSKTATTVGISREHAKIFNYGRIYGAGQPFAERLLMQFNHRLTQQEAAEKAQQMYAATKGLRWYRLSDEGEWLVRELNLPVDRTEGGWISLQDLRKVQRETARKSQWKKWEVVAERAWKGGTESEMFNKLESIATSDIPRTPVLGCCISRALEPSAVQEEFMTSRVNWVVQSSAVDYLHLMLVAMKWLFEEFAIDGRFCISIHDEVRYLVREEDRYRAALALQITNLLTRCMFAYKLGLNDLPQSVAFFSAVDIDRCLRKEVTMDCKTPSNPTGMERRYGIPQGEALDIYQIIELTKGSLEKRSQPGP
In words: Inhibition of mitochondrial DNA polymerase pol γ. The class given is biochemical. The conditions noted are these: read-out: DNA pol γ IC50.

The next series concerns the target T5, human DNA polymerase α (Homo sapiens, UniProt P09884).
T5 sequence (P09884 1-1462): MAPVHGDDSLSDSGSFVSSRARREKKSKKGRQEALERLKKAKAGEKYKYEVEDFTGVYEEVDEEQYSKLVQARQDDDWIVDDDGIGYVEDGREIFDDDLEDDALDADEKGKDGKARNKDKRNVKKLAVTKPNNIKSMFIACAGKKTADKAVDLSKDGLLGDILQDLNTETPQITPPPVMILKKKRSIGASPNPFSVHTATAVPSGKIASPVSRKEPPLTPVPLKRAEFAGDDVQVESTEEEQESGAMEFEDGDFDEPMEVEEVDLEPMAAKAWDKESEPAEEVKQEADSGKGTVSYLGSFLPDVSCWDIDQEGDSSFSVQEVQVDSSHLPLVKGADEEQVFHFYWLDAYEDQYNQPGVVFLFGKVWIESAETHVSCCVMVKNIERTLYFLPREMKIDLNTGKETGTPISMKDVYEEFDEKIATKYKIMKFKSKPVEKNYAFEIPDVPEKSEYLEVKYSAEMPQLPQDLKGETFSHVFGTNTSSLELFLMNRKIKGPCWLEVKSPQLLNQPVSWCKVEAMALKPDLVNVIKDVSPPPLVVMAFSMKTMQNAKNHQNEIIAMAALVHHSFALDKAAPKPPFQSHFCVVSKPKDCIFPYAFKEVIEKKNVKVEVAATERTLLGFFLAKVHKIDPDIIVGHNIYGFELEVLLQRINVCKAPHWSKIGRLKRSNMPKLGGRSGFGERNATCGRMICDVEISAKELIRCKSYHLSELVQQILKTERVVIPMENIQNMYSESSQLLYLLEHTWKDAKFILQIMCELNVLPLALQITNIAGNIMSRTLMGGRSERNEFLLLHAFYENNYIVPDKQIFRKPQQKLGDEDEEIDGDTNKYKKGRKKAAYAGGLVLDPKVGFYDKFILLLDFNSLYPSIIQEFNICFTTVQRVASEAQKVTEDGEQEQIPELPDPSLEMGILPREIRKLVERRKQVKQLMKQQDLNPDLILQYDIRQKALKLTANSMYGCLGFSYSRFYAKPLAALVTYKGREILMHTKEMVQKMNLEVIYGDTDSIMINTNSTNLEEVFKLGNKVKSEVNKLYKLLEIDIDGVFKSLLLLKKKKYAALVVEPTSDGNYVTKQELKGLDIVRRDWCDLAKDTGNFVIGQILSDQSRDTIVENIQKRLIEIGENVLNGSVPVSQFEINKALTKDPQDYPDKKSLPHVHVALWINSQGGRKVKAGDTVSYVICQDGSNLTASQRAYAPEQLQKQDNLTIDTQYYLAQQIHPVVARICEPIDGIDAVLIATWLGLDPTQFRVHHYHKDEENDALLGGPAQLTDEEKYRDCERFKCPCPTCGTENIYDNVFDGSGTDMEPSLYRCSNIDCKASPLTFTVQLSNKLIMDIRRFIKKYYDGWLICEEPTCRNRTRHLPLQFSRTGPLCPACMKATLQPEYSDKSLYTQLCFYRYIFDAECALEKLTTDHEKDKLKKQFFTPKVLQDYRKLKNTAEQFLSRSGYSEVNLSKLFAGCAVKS
In words: Inhibition of human DNA polymerase α. The class given is biochemical.

The target in another series is human DNA polymerase β (Homo sapiens, UniProt P06746). Kind of series: Inhibition of human DNA polymerase β. The class given is biochemical.
Series [12] deals with T1, human RNA polymerase I. Kind of series: Human RNA polymerase I activity in cell extracts. The class given is biochemical.
Series [13] concerns the target T2, human RNA polymerase II. Kind of series: Human RNA polymerase II activity in cell extracts. The class given is biochemical.
For series [14], the target named is T3, human RNA polymerase III. In words: Human RNA polymerase III activity in cell extracts. The class given is biochemical.
Another series deals with HCV polymerase (Hepatitis C virus genotype 1a, UniProt P27958). Kind of series: Inhibition of HCV polymerase. The class given is biochemical.
For another series, the target named is Dengue virus polymerase (Dengue virus type 2, UniProt P29990). Kind of series: Inhibition of Dengue virus polymerase. The class given is biochemical.
Another series concerns the target influenza polymerase (Influenza A virus, UniProt P03431). In words: Activity against influenza polymerase. The class given is biochemical.
Another series deals with RSV polymerase. In words: Activity against RSV polymerase. The class given is biochemical.

Where two headings read alike, the source gives them in different places.

A word on the EC50: it is the concentration that produces a half-maximal response. As usually defined, the CC50 is the concentration that lowers cell viability or growth by half. The term solubility denotes the concentration that dissolves in the medium under given conditions. A lower solubility goes with little dissolved substance. In the case of `C[C@H](NP(=O)(OC[C@@]1(N=[N+]=[N-])O[C@@H](n2ccc(=O)[nH]c2=O)[C@H](O)[C@@H]1O)Oc1cccc2ccccc12)C(=O)OCc1ccccc1` (stereo partly drawn) [Compound I-1, benzyl ((((2R,3S,4R,5R)-2-azido-5-(2,4-dioxo-3,4-dihydropyrimidin-1(2H)-yl)-3,4-dihydroxytetrahydrofuran-2-yl)methoxy)(naphthalen-1-yloxy)phosphoryl)-L-alaninate], the concentration for a half-maximal effect (EC50) in series [1] (Zika virus, ZIKV strain MR766, human Huh-7 or mouse MEF cells) stood at 0.74 µM; in series [3], 0.42 µM; in [5] it was 0.33 µM. For the same molecule, the “antiviral inhibition potency (EC50), in words” value in [1] (summary statement) is given as “submicromolar”. Also, the CC50 at 3 day is greater than 10 µM in [2] (cytotoxicity column of the ZIKV assay, read-out: ZIKV CC50) and greater than 100 µM in series [2] (summary statement, cytotoxicity in cell culture, read-out: Huh-7 cell CC50). In addition, the cytotoxic concentration (CC50) in series [4] and in [10] was greater than 10 µM in each case. Also, the “inhibition of human RNA polymerase I activity (reporter gene)” value against human RNA polymerase I [6] is “did not inhibit”. The “inhibition of human RNA polymerase II activity (reporter gene)” value on human RNA polymerase II [7] was “did not inhibit”. In addition, the “inhibition of human RNA polymerase III activity (reporter gene)” value against human RNA polymerase III [8] is “did not inhibit”. Also, the solubility in [9] is no more than 10 µM.
For orientation: IC50 means the midpoint of a concentration-inhibition curve. As to `[N-]=[N+]=N[C@]1(COP(=O)(O)OP(=O)(O)OP(=O)(O)O)O[C@@H](n2ccc(=O)[nH]c2=O)[C@H](O)[C@@H]1O` [Compound 4AUTP, 4′-azido-uridine triphosphate], the half-maximal inhibitory concentration (IC50) (in series [11]; against human DNA polymerase α; against human DNA polymerase β; against human RNA polymerase I [12]; against human RNA polymerase II [13]; against human RNA polymerase III [14]) was greater than 1000 µM throughout. Also, the “inhibition of HCV polymerase” value against HCV polymerase is “inhibition”. In addition, the “inhibition of Dengue virus polymerase” value against Dengue virus polymerase is recorded as “inhibition”. The “activity against influenza polymerase” value at influenza polymerase is “not active”. Also, the “activity against RSV polymerase” value with RSV polymerase is “not active”.

These data come from patent publication US20170232031A1, “Inhibitors of Zika Virus” (Riboscience LLC, priority 2016, published 2017).
